Data: patent publication US12091393B2, “Small molecule vaccine adjuvant for enhancing or prolonging immune response” (The Regents of the University of California, priority 2018, dated 2024)
“Also recorded” adds a separate entry of the source. Read-outs that look alike come from different tables or passages of the source.

What was measured:
NF-κB [1] = experiment: Measurement of NF-κB activation using THP1-Blue NF-κB cells (SEAP); assay type: cell-based; details: for NF-κB activity (SAR discussion, in words): evaluated in both the presence and absence of LPS
NF-κB [2] = experiment: cell-based NF-κB FRET assay; details: compound + LPS; two point normalized, compound 1 as 200%, LPS (10 ng/mL) as 100%
Excerpt: Site A was assigned the 4-substituent of thiazole ring, site B was the thiazole ring itself, site C was the central amide bond in the structure, site D was the benzene ring bearing 1,4-carboxyl and sulfamoyl group, site E was the sulfonamide functional group and site F was the amide substituent on the sulfamoyl group.

THP-1 cells = experiment: Cell viability assay (MTT); assay type: cell-based; details: compound 5 μM alone, 18 h, normalized to DMSO as 100%
Description: THP-1 cells were plated in 96-well plates (10^5 cells/well) in 100 μL RPMI supplemented with 10% FBS, 100 U/mL penicillin and 100 μg/ml streptomycin. Compounds were dissolved in DMSO at 1 mM stock solution and were further diluted to 10 μM in the assay medium. 100 μL of this solution was added to the cells to obtain a final compound concentration of 5 μM ([…]). After 18 h incubation, a solution of MTT in assay media (0.5 mg/mL) was added to each well and further incubated for 4 to 6 h, followed by addition of cell lysis buffer (15% w/v SDS and 0.12% v/v 12N HCl aqueous solution), incubated overnight, and then absorbance measured at 570 nm using 650 nm as reference using Tecan Infinite M200 plate reader.

[3] = compound 5 μM + LPS, 20 h, two point normalized, compound 1 as 200%, LPS (10 ng/mL) as 100%, read-out: NF-κB SEAP Compound + LPS % Activation
[4] = compound 5 μM alone, 20 h, two point normalized, compound 1 as 200%, LPS or DMSO as 100%, read-out: NF-κB SEAP Compound alone % Activation

| SMILES | activity at 5 µM (NF-κB [1]; [3]) | activity at 5 µM (NF-κB [1]; [4]) | NF-κB activity (SAR discussion, in words) (NF-κB [1]) | NF-κB FRET Compound + LPS % Activation (NF-κB [2]) | MTT Compound alone % Viability (THP-1 cells) | NF-κB activity when tested alone (in words) (NF-κB [1]; compound alone, without LPS) | NF-κB SEAP Compound + LPS % Activation (NF-κB [1]; compound 5 μM + LPS, 20 h, two point normalized, compound 1 as 200%, LPS (10 ng/mL) as 100%) | NF-κB SEAP Compound alone % Activation (NF-κB [1]; compound 5 μM alone, 20 h, two point normalized, compound 1 as 200%, LPS or DMSO as 100%) |
| --- | --- | --- | --- | --- | --- | --- | --- | --- |
| C#CCN(CCC)S(=O)(=O)c1ccc(C(=O)Nc2nc(-c3cc(C)ccc3C)cs2)cc1 [Compound 72c, N-(4-(2,5-dimethylphenyl)thiazol-2-yl)-4-(N-(prop-2-yn-1-yl)-N-propylsulfamoyl)benzamide] | 122% | 103% | lost their activity | 133.88% | 84.00% |  |  |  |
| CCN(CC)c1sc(NC(=O)c2ccc(S(=O)(=O)N3CCCCC3)cc2)nc1-c1cc(C)ccc1C [Compound 18g, N-(5-(diethylamino)-4-(2,5-dimethylphenyl)thiazol-2-yl)-4-(piperidin-1-ylsulfonyl)benzamide] | 98.1% | 98% | completely inactive | 92.64% | 94.30% |  |  |  |
| CCCC1CCN(S(=O)(=O)c2ccc(C(=O)Nc3nc(-c4cc(C)ccc4C)cs3)cc2)CC1 [Compound 58h, N-(4-(2,5-dimethylphenyl)thiazol-2-yl)-4-((4-propylpiperidin-1-yl)sulfonyl)benzamide] | 248% | 517% | active; also recorded: most potent | 218.16% | 111.27% | very potent |  |  |
| Cc1ccc(C)c(-c2csc(NCc3ccc(S(=O)(=O)N4CCCCC4)cc3)n2)c1 [Compound 34a, 4-(2,5-dimethylphenyl)-N-(4-(piperidin-1-ylsulfonyl)benzyl)thiazol-2-amine] | 102% | 99.1% | inactive | 106.53% | 85.48% |  |  |  |
| Cc1ccc(N=[N+]=[N-])cc1-c1csc(NC(=O)c2ccc(S(=O)(=O)N3CCCCC3)cc2)n1 [Compound 67, N-(4-(5-azido-2-methylphenyl)thiazol-2-yl)-4-(piperidin-1-ylsulfonyl)benzamide] | 159% | 177% | retained activity | 168.96% | 90.50% |  |  |  |
| CCCN1CCN(S(=O)(=O)c2ccc(C(=O)Nc3nc(-c4cc(C)ccc4C)cs3)cc2)CC1 [Compound 58k, N-(4-(2,5-dimethylphenyl)thiazol-2-yl)-4-((4-propylpiperazin-1-yl)sulfonyl)benzamide] | 110% | 101% | inactive | 100.84% | 50.85% |  |  |  |
| Cc1ccc(C)c(-c2cccc(NC(=O)c3ccc(S(=O)(=O)N4CCCCC4)cc3)n2)c1 [Compound 18b, N-(6-(2,5-dimethylphenyl)pyridin-2-yl)-4-(piperidin-1-ylsulfonyl)benzamide] |  | 99.6% | none of these molecules that replaced the thiazole functionality were active | 146.10% | 93.89% |  |  |  |
| Cc1ccc(C)c(-c2csc(NC(=O)c3ccc(S(=O)(=O)N4CCN(C(=O)OC(C)(C)C)CC4)cc3)n2)c1 [Compound 58f, tert-butyl 4-((4-((4-(2,5-dimethylphenyl)thiazol-2-yl)carbamoyl)phenyl)sulfonyl)piperazine-1-carboxylate] | 105% | 101% | inactive | 95.64% | 81.23% |  |  |  |
| Cc1ccc(-c2csc(NC(=O)c3ccc(S(=O)(=O)N4CCCCC4)cc3)n2)cc1C [Compound 12n, N-(4-(3,4-dimethylphenyl)thiazol-2-yl)-4-(piperidin-1-ylsulfonyl)benzamide] | 98% | 98.7% | inactive | 128.01% | 97.59% |  |  |  |
| C#Cc1sc(NC(=O)c2ccc(S(=O)(=O)N3CCCCC3)cc2)nc1-c1cc(C)ccc1C [Compound 18o, N-(4-(2,5-dimethylphenyl)-5-ethynylthiazol-2-yl)-4-(piperidin-1-ylsulfonyl)benzamide] | 153% | 118% | weak activity | 101.71% | 111.27% |  |  |  |
| CC(C)(C)Cc1csc(NC(=O)c2ccc(S(=O)(=O)N3CCCCC3)cc2)n1 [Compound 12j, N-(4-neopentylthiazol-2-yl)-4-(piperidin-1-ylsulfonyl)benzamide] | 93.9% | 99.5% | None of these molecules had any NF-κB activity | 110.62% | 125.52% |  |  |  |
| Cc1cccc(-c2csc(NC(=O)c3ccc(S(=O)(=O)N4CCCCC4)cc3)n2)c1C [Compound 12l, N-(4-(2,3-dimethylphenyl)thiazol-2-yl)-4-(piperidin-1-ylsulfonyl)benzamide] | 157% | 195% | retained activity | 206.60% | 98.37% |  |  |  |
| Cc1ccc(C)c(-c2csc(NS(=O)(=O)c3ccc(C(=O)N4CCCCC4)cc3)n2)c1 [Compound 55, N-(4-(2,5-dimethylphenyl)thiazol-2-yl)-4-(piperidine-1-carbonyl)benzenesulfonamide] | 91.7% | 103% | inactive | 70.37% | 58.91% |  |  |  |
| CCSc1sc(NC(=O)c2ccc(S(=O)(=O)N3CCCCC3)cc2)nc1-c1cc(C)ccc1C [Compound 18k, N-(4-(2,5-dimethylphenyl)-5-(ethylthio)thiazo-2-yl)-4-(piperidin-1-ylsulfonyl)benzamide] |  |  | completely inactive | 167.51% | 111.74% |  | 104.47% | 100.75% |
| Cc1ccc(C)c(-c2csc(NC(=O)c3ccc(S(=O)(=O)N4CCC5(CC4)N=N5)cc3)n2)c1 [Compound 72e, 4-((1,2,6-triazaspiro[2.5]oct-1-en-6-yl)sulfonyl)-N-(4-(2,5-dimethylphenyl)thiazol-2-yl)benzamide] | 168% | 144% | active | 168.82% | 84.40% |  |  |  |
| Cc1cc(C)cc(-c2csc(NC(=O)c3ccc(S(=O)(=O)N4CCCCC4)cc3)n2)c1 [Compound 12o, N-(4-(3,5-dimethylphenyl)thiazol-2-yl)-4-(piperidin-1-ylsulfonyl)benzamide] | 93.2% | 98.2% | inactive | 170.36% | 92.91% |  |  |  |
| Cc1ccc(Br)c(-c2csc(NC(=O)c3ccc(S(=O)(=O)N4CCCCC4)cc3)n2)c1 [Compound 12d, N-(4-(2-bromo-5-methylphenyl)thiazol-2-yl)-4-(piperidin-1-ylsulfonyl)benzamide] | 223% | 254% | active; also recorded: most potent | 197.32% |  |  |  |  |
| Cc1ccc(C)c(Cc2csc(NC(=O)c3ccc(S(=O)(=O)N4CCCCC4)cc3)n2)c1 [Compound 12f, N-(4-(2,5-dimethylbenzyl)thiazol-2-yl)-4-(piperidin-1-ylsulfonyl)benzamide] | 108% | 102% | inactive |  | 97.02% |  |  |  |
| Cc1ccc(C)c(-c2nc(NC(=O)c3ccc(S(=O)(=O)N4CCCCC4)cc3)sc2C#CCCCO)c1 [Compound 18u, N-(4-(2,5-dimethylphenyl)-5-(5-hydroxypent-1-yn-1-yl)thiazol-2-yl)-4-(piperidin-1-ylsulfonyl)benzamide] | 134% | 100% |  |  | 104.08% |  |  |  |
| Cc1ccc(C)c(-c2nnc(NC(=O)c3ccc(S(=O)(=O)N4CCCCC4)cc3)s2)c1 [Compound 18f, N-(5-(2,5-dimethylphenyl)-1,3,4-thiadiazol-2-yl)-4-(piperidin-1-ylsulfonyl)benzamide] | 148% | 99.7% | none of these molecules that replaced the thiazole functionality were active |  | 89.80% |  |  |  |
